The structures appear in SMILES notation. ≈ marks a conversion by molar mass, not a printed value.

Assay [1] concerns ornithin decarboxylase (ODC). The conditions noted are these: Sharma et al., 1994; cited from earlier work.
Assay [2] has as its system cervical cancer cell line Hela. Put plainly: Anticancer activity, SRB growth assay in cervical cancer cell line Hela (3 days). To be noted: Homo sapiens, 72 h, 2,500 cells/well, 570 nm, 0.008-1 μg/ml tested. Format: cell-based. The procedure: (§1) These assays are commonly used by those skilled in the art and are accepted as indicative of anticancer activity in mammals. The anticancer activities of dithiolopyrrolones have been determined in cell cultures of human colon cancer cell line HT-29, breast cancer cell line MCF-7 and cervical cancer cell line Hela. The procedure was carried out using the method described by Skehan et al. (1990). Briefly, cancer cells were grown in RPMI-1640 medium with glutamine and 10% fetal calf serum, and were harvested from exponential-phase maintenance cultures. The harvested cells were counted and dispensed into replicate 96-well culture plates in 180 μl volumes for each well with a cell density of 2,500 cells/well. The cells were allowed to settle for about 4 hours at 37° C. Then 20 μl of medium containing the test dithiolopyrrolone was added into each well, resulting in a final test compound concentration between 0.008-1 μg/ml. The test plates were then incubated at 37° C. The test was terminated 3 days after incubation by adding to each well 50 μl of cold 50% trichloroacetic acid. The cells were fixed for an hour at 4° C. and then washed five times with tap water. The washed plates were air-dried and stained for 30 minutes with 0.4% (wt/vol) sulforhodamine B (SRB) which was dissolved in 1% acetic acid. At the end of the staining period, the SRB was removed and plates were quickly rinsed, five times with 1 % acetic acid. After being rinsed, the plates were air-dried and 100 μl of 10 mM tris base (pH 10.5) were added to each well to solubilize the dye bound to the cells. The plates were placed on a gyratory shaker and shaken (100 rpm) for 10 minutes. Finally, the plates were read in a microtiter plate reader at 570 nm.
Background: In SRB staining, fixed cells bind dye roughly in proportion to their protein.

For assay [3], the system named is membrane. The conditions noted are these: Ninomiya et al., 1980; cited from earlier work.
Assay [4] relates to platelet aggregation. To be noted: in vitro; Ninomiya et al., 1980; cited from earlier work.
The subject of assay [5] is mammary cells. The conditions noted are these: mammary cells exposed to carcinogens; Menta and Moon, 1991; Arnold et al., 1995; cited from earlier work.
In assay [6] the test system is breast cancer cell line MCF-7. Briefly: Anticancer activity, SRB growth assay in breast cancer cell line MCF-7 (3 days). Format: cell-based. The conditions noted are these: Homo sapiens, MCF7, 72 h, 2,500 cells/well, 570 nm, 0.008-1 μg/ml tested. The procedure: as §1, with “At the end of the staining period, the SRB was removed and plates were quickly rinsed, five times with 1 % acetic acid. After being rinsed, the plates were air-dried and 100 μl of 10 mM tris base (pH 10.5) were added to each well to solubilize the dye bound to the cells. The plates were placed on a gyratory shaker and shaken (100 rpm) for 10 minutes.” left out

Assay [7] has as its system glutathione. The conditions noted are these: Sharma et al., 1994; cited from earlier work.
For assay [8], the system named is human colon cancer cell line HT-29. Put plainly: Anticancer activity, SRB growth assay in human colon cancer cell line HT-29 (3 days). To be noted: HT-29, 72 h, HT29, 2,500 cells/well, 570 nm, 0.008-1 μg/ml tested. Format: cell-based. On the procedure:
as §1, with “At the end of the staining period, the SRB was removed and plates were quickly rinsed, five times with 1 % acetic acid. After being rinsed, the plates were air-dried and 100 μl of 10 mM tris base (pH 10.5) were added to each well to solubilize the dye bound to the cells. The plates were placed on a gyratory shaker and shaken (100 rpm) for 10 minutes.” left out

Assay [9] has as its system RNA polymerase. To be noted: Jimenez et al., 1973, Tipper; cited from earlier work.

`CC(=O)Nc1c2sscc-2n(C)c1=O` [XN0, N-(4,5-dihydro-4-methyl-5-oxo-1,2-dithiolo[4,3-b]pyrrol-6-yl)acetamide]: the “inhibition of ODC (in words)” value in assay [1] was “inhibits OCD”. Moreover, the IC50 in [2] came out at 0.07 µg/mL (≈ 0.307 µM); in [6], 0.08 µg/mL (≈ 0.35 µM); in [8], 0.03 µg/mL (≈ 0.131 µM). In addition, the “membrane stabilization activity (in words)” value in assay [3] is listed as “has membrane stabilization activity”. The “inhibition of platelet aggregation (in words)” value in [4] is on record as “inhibits platelet aggregation in vitro”. Besides, the “inhibition of promotion of carcinogenesis-associated activities (in words)” value in assay [5] is listed as “inhibits the promotion of several other activities possibly associated with the occurrence of carcinogenesis in mammary cells”. Besides, the “reduction of glutathione (in words)” value in assay [7] is on record as “induces the reduction of glutathione”. For the same compound, the “inhibition of RNA polymerase synthesis (in words)” value in assay [9] was “inhibits RNA polymerase synthesis”.

On to `CCCCCC(=O)Nc1c2sscc-2n(C)c1=O` [XN1, N-(4,5-dihydro-4-methyl-5-oxo-1,2-dithiolo[4,3-b]pyrrol-6-yl)hexanoamide], for which, in assay [2], inhibition was half-maximal at 0.13 µg/mL (≈ 0.457 µM) (IC50).

Regarding `CC(C)CCCC(=O)Nc1c2sscc-2[nH]c1=O` [XN3, N-(4,5-dihydro-5-oxo-1,2-dithiolo[4,3-b]pyrrol-6-yl)5-methylhexanoamide], in assay [2], the midpoint of inhibition, the IC50, lay at 0.09 µg/mL (≈ 0.316 µM).

For orientation: IC50 means the concentration that gives 50% inhibition. Read a high IC50 as lower potency.

Values taken from patent publication US6020360A, “Anticancer property of dithiolopyrrolones” (priority 1996, dated 2000).
